Results reported in patent US4914125A, “(S)-emopamil for the treatment of migraine” (priority 1988, dated 1990).

Key:
[1] = tested on: increase in blood pressure induced by serotonin; assay: inhibition of the increase in blood pressure induced by serotonin in the pithed rat on intravenous administration; type: in vivo, rat (male Sprague-Dawley); conditions: for ED50: iv, serotonin 0.0215 mg/kg i.v., read-out: ED 50% (dose which inhibits the increase in blood pressure due to serotonin by 50%)
Protocol: The pithing is carried out by a rod through the orbit. […] The criterion of an action of a substance is the relative inhibition (δ-%) of the increase in blood pressure induced by serotonin (δmm Hg). The quantitative evaluation is by analysis of the linear regression (y =a+b x) between log dose (mg/kg) and relative inhibition (δ%) of the increase in blood pressure due to serotonin.

serotonin [2] = assay: serotonin-antagonistic action on oral administration; type: in vivo; conditions: (S)-emopamil vs verapamil
blood/brain barrier [3] = conditions: rat, in vivo
Text: (§1) The calculated BUI values indicate the cerebral uptake as a percentage of the water uptake.

blood/brain barrier [4] = assay: brain uptake index (BUI) after injection into the common carotid artery of the anesthetized rat, single passage through the cerebral capillaries; conditions: [14C]-labeled test substance, [3H]-labeled water as internal standard, HEPES-buffered Ringer solution pH=7.35, anesthetized rat
Text: as §1

serotonin [5] = conditions: by comparison with known serotonin antagonists; cited from earlier work

## CC(C)[C@@](C#N)(CCCN(C)CCc1ccccc1)c1ccccc1 [(S)-Emopamil, 2-isopropyl-5-(methyl-phenethylamino)-2-phenylvaleronitrile]
[1]; compared with known serotonin antagonists and verapamil
  antiserotonin action (in words): reaches the potency of known serotonin antagonists and exceeds by a multiple that of the comparison compound verapamil
[1]; pithed rat, i.v.
  ED50: 0.02 mg/kg
[1]; pithed rat, i.v., (S)-emopamil vs verapamil
  serotonin-antagonistic action relative to verapamil (times): 18 times
Serotonin [2]
  superiority to verapamil in the serotonin-antagonistic action (factor): 4.6
blood/brain barrier [3]
  passage of the blood/brain barrier (in words): passes the blood/brain barrier more rapidly and in considerably larger amounts than does verapamil
blood/brain barrier [4]
  BUI value (cerebral uptake as a percentage of the water uptake): 110%

## COc1ccc(CCN(C)CCCC(C#N)(c2ccc(OC)c(OC)c2)C(C)C)cc1OC (centres unmarked) [Verapamil, reference compound]
[1]; pithed rat, i.v.
  ED50: 0.36 mg/kg
Serotonin [5]
  serotonin-antagonistic action (in words): weak by comparison with known serotonin antagonists
